In US9302999B2, “Substituted triazoles as herbicides” (E. I. DU PONT DE NEMOURS AND COMPANY, priority 2012, dated 2016):

Tests used:
Format in all cases: in vivo
[1] = system: bermudagrass (Cynodon dactylon); experiment: Test C pre-/postemergence: bermudagrass
Text: (§1) Seeds of plant species selected from blackgrass (Alopecurus myosuroides), bromegrass, downy (downy bromegrass, Bromus tectorum), foxtail, green (green foxtail, Setaria viridis), ryegrass, Italian (Italian ryegrass, Lolium multiflorum), winter wheat (Triticum aestivum), wild oat (Avena fatua), galium (catchweed bedstraw, Galium aparine), bermudagrass (Cynodon dactylon), surinam grass (Brachiaria decumbens), cocklebur (common cocklebur, Xanthium strumarium), corn (Zea mays), large crabgrass (Digitaria sanguinalis), woolly cupgrass (Eriochloa villosa), foxtail, giant (giant foxtail, Setaria faberii), goosegrass (Eleusine indica), johnsongrass (Sorghum halepense), kochia (Kochia scoparia), lambsquarters (Chenopodium album), morningglory (Ipomoea coccinea), nightshade (eastern black nightshade, Solanum ptycanthum), nutsedge, yellow (yellow nutsedge, Cyperus esculentus), pigweed (Amaranthus retroflexus), ragweed (common ragweed, Ambrosia elation), soybean (Glycine max), common (oilseed) sunflower (Helianthus annuus), Russian thistle (Salsola kali) and velvetleaf (Abutilon theophrasti) were planted into a blend of loam soil and sand and treated preemergence with test chemicals formulated in a non-phytotoxic solvent mixture which included a surfactant.
(§2) At the same time, plants selected from these crop and weed species and also barley (winter barley, Hordeum vulgare), canarygrass (Phalaris minor), chickweed (common chickweed, Stellaria media) windgrass (Apera spica-venti) and deadnettle (henbit deadnettle, Lamium amplexicaule) were planted in pots containing Redi-Earth® planting medium (Scotts Company, 14111 Scottslawn Road, Marysville, Ohio 43041) comprising spaghnum peat moss, vermiculite, wetting agent and starter nutrients and treated with postemergence applications of test chemicals formulated in the same manner. Plants ranged in height from 2 to 18 cm (1- to 4-leaf stage) for postemergence treatments.
(§3) Treated plants and controls were maintained in a greenhouse for 13 to 15 days, after which time all species were compared to controls and visually evaluated. Plant response ratings, summarized in Table C, are based on a scale of 0 to 100 where 0 is no effect and 100 is complete control. A dash (-) response means no test result.

[2] = system: surinam grass (Brachiaria decumbens); experiment: Test C pre-/postemergence: surinam grass
Text: as §1, §2, §3

[3] = system: barley (winter barley, Hordeum vulgare); experiment: Test C postemergence: barley
Text: as §2, §3

[4] = system: woolly cupgrass (Eriochloa villosa); experiment: Test C pre-/postemergence: woolly cupgrass
Text: as §1, §2, §3

[5] = system: windgrass (Apera spica-venti); experiment: Test C postemergence: windgrass
Text: as §2, §3

[6] = system: common (oilseed) sunflower (Helianthus annuus); experiment: Test C pre-/postemergence: sunflower; conditions: Preemergence
Text: as §1, §2, §3

[7] = system: cocklebur (common cocklebur, Xanthium strumarium); experiment: Test C pre-/postemergence: cocklebur
Text: as §1, §2, §3

[8] = system: foxtail, green (green foxtail, Setaria viridis); experiment: Test C pre-/postemergence: foxtail, green
Text: as §1, §2, §3

[9] = system: bromegrass, downy (downy bromegrass, Bromus tectorum); experiment: Test C pre-/postemergence: bromegrass, downy
Text: as §1, §2, §3

[10] = system: goosegrass (Eleusine indica); experiment: Test C pre-/postemergence: goosegrass
Text: as §1, §2, §3

[11] = Postemergence, 31 g ai/ha, scale 0 to 100 (0 no effect, 100 complete control)
[12] = Postemergence, 62 g ai/ha, scale 0 to 100 (0 no effect, 100 complete control)
[13] = Postemergence, 125 g ai/ha, scale 0 to 100, 0 no effect, 100 complete control
[14] = Postemergence, 250 g ai/ha, scale 0 to 100
[15] = Preemergence, 31 g ai/ha, scale of 0 to 100, 0 is no effect, 100 is complete control
[16] = Preemergence, 62 g ai/ha, scale 0 to 100, 0 no effect, 100 complete control
[17] = Preemergence, 125 g ai/ha, scale 0 to 100, 0 no effect, 100 complete control
[18] = Preemergence, 250 g ai/ha, scale 0 to 100, 0 no effect, 100 complete control
[19] = Preemergence, 62 g ai/ha, scale of 0 to 100, 0 is no effect, 100 is complete control
[20] = 31 g ai/ha, scale 0 to 100 (0 no effect, 100 complete control)
[21] = 62 g ai/ha, scale 0 to 100 (0 no effect, 100 complete control)
[22] = 125 g ai/ha, scale 0 to 100, 0 no effect, 100 complete control
[23] = 31 g ai/ha, scale of 0 to 100, 0 is no effect, 100 is complete control
[24] = 62 g ai/ha, scale of 0 to 100, 0 is no effect, 100 is complete control
[25] = 250 g ai/ha, scale 0 to 100, 0 no effect, 100 complete control

FC(F)(F)COc1nn(-c2ccc(C(F)(F)F)cc2)nc1Cc1ccnc(C(F)(F)F)c1 [Compound 14, 4-[[5-(2,2,2-trifluoroethoxy)-2-[4-(trifluoromethyl)phenyl]-2H-1,2,3-triazol-4-yl]methyl]-2-(trifluoromethyl)pyridine]
Plant response rating, Bermudagrass [1, 11]: 0 | Plant response rating, Bermudagrass [1, 12]: 15 | Plant response rating, Bermudagrass [1, 13]: 55 | Plant response rating, Bermudagrass [1, 14]: 65 | Plant response rating, Bermudagrass [1, 15]: 98 | Plant response rating, Bermudagrass [1, 16]: 100 | Plant response rating, Bermudagrass [1, 17]: 100 | Plant response rating, Bermudagrass [1, 18]: 100 | Plant response rating, Surinam Grass [2, 11]: 5 | Plant response rating, Surinam Grass [2, 12]: 5 | Plant response rating, Surinam Grass [2, 13]: 30 | Plant response rating, Surinam Grass [2, 14]: 55 | Plant response rating, Surinam Grass [2, 15]: 20 | Plant response rating, Surinam Grass [2, 19]: 45 | Plant response rating, Surinam Grass [2, 17]: 60 | Plant response rating, Surinam Grass [2, 18]: 85 | Plant response rating, Barley [3, 20]: 30 | Plant response rating, Barley [3, 21]: 35 | Plant response rating, Barley [3, 22]: 50 | Plant response rating, Barley ([3]; 250 g ai/ha, scale 0 to 100): 50 | Plant response rating, Cupgrass, Woolly [4, 11]: 5 | Plant response rating, Cupgrass, Woolly [4, 12]: 5 | Plant response rating, Cupgrass, Woolly [4, 13]: 35 | Plant response rating, Cupgrass, Woolly [4, 14]: 65 | Plant response rating, Cupgrass, Woolly [4, 15]: 5 | Plant response rating, Cupgrass, Woolly [4, 19]: 75 | Plant response rating, Cupgrass, Woolly [4, 17]: 75 | Plant response rating, Cupgrass, Woolly [4, 18]: 80 | Plant response rating, Windgrass [5, 20]: 70 | Plant response rating, Windgrass [5, 21]: 90 | Plant response rating, Windgrass [5, 22]: 95 | Plant response rating, Windgrass ([5]; 250 g ai/ha, scale 0 to 100): 95 | Plant response rating, Sunflower [6, 23]: 0 | Plant response rating, Sunflower [6, 24]: 0 | Plant response rating, Sunflower [6, 22]: 0 | Plant response rating, Sunflower [6, 25]: 15 | Plant response rating, Cocklebur [7, 11]: 5 | Plant response rating, Cocklebur [7, 12]: 5 | Plant response rating, Cocklebur [7, 13]: 45 | Plant response rating, Cocklebur [7, 14]: 75 | Plant response rating, Cocklebur [7, 15]: 0 | Plant response rating, Cocklebur [7, 17]: 20 | Plant response rating, Cocklebur [7, 18]: 45 | Plant response rating, Foxtail, Green [8, 11]: 70 | Plant response rating, Foxtail, Green [8, 13]: 90 | Plant response rating, Foxtail, Green [8, 14]: 90 | Plant response rating, Foxtail, Green [8, 15]: 80 | Plant response rating, Foxtail, Green [8, 19]: 100 | Plant response rating, Foxtail, Green [8, 17]: 100 | Plant response rating, Foxtail, Green [8, 18]: 100 | Plant response rating, Bromegrass, Downy [9, 11]: 30 | Plant response rating, Bromegrass, Downy [9, 12]: 40 | Plant response rating, Bromegrass, Downy [9, 13]: 40 | Plant response rating, Bromegrass, Downy [9, 14]: 45 | Plant response rating, Bromegrass, Downy [9, 15]: 30 | Plant response rating, Bromegrass, Downy [9, 16]: 35 | Plant response rating, Bromegrass, Downy [9, 17]: 60 | Plant response rating, Bromegrass, Downy [9, 18]: 98 | Plant response rating, Goosegrass [10, 11]: 5 | Plant response rating, Goosegrass [10, 12]: 5 | Plant response rating, Goosegrass [10, 13]: 60 | Plant response rating, Goosegrass [10, 14]: 75 | Plant response rating, Goosegrass [10, 15]: 98 | Plant response rating, Goosegrass [10, 19]: 100 | Plant response rating, Goosegrass [10, 17]: 100 | Plant response rating, Goosegrass [10, 18]: 100

FC(F)(F)c1ccc(-n2nc(Cl)c(Cc3ccnc(C(F)(F)F)c3)n2)cc1 [Compound 28]
Plant response rating, Bermudagrass [1, 11]: 10 | Plant response rating, Bermudagrass [1, 12]: 15 | Plant response rating, Bermudagrass [1, 13]: 20 | Plant response rating, Bermudagrass [1, 14]: 25 | Plant response rating, Surinam Grass [2, 11]: 5 | Plant response rating, Surinam Grass [2, 12]: 10 | Plant response rating, Surinam Grass [2, 13]: 15 | Plant response rating, Surinam Grass [2, 14]: 15 | Plant response rating, Barley [3, 20]: 10 | Plant response rating, Barley [3, 21]: 15 | Plant response rating, Barley [3, 22]: 20 | Plant response rating, Barley ([3]; 250 g ai/ha, scale 0 to 100): 35 | Plant response rating, Cupgrass, Woolly [4, 11]: 20 | Plant response rating, Cupgrass, Woolly [4, 12]: 30 | Plant response rating, Cupgrass, Woolly [4, 13]: 35 | Plant response rating, Cupgrass, Woolly [4, 14]: 40 | Plant response rating, Windgrass [5, 20]: 30 | Plant response rating, Windgrass [5, 21]: 45 | Plant response rating, Windgrass [5, 22]: 50 | Plant response rating, Windgrass ([5]; 250 g ai/ha, scale 0 to 100): 50 | Plant response rating, Cocklebur [7, 11]: 10 | Plant response rating, Cocklebur [7, 12]: 15 | Plant response rating, Cocklebur [7, 13]: 20 | Plant response rating, Cocklebur [7, 14]: 25 | Plant response rating, Foxtail, Green [8, 11]: 30 | Plant response rating, Foxtail, Green [8, 12]: 70 | Plant response rating, Foxtail, Green [8, 13]: 70 | Plant response rating, Foxtail, Green [8, 14]: 85 | Plant response rating, Bromegrass, Downy [9, 11]: 5 | Plant response rating, Bromegrass, Downy [9, 12]: 25 | Plant response rating, Bromegrass, Downy [9, 13]: 35 | Plant response rating, Bromegrass, Downy [9, 14]: 35 | Plant response rating, Goosegrass [10, 11]: 20 | Plant response rating, Goosegrass [10, 12]: 20 | Plant response rating, Goosegrass [10, 13]: 25 | Plant response rating, Goosegrass [10, 14]: 45

Cc1nn(-c2ccnc(Cl)c2)nc1Cc1ccnc(C(F)(F)F)c1 [Compound 141]
Plant response rating, Bermudagrass [1, 11]: 15 | Plant response rating, Bermudagrass [1, 13]: 55 | Plant response rating, Bermudagrass [1, 14]: 95 | Plant response rating, Surinam Grass [2, 11]: 15 | Plant response rating, Surinam Grass [2, 12]: 15 | Plant response rating, Surinam Grass [2, 13]: 30 | Plant response rating, Surinam Grass [2, 14]: 30 | Plant response rating, Barley [3, 20]: 5 | Plant response rating, Barley [3, 21]: 10 | Plant response rating, Barley [3, 22]: 15 | Plant response rating, Barley ([3]; 250 g ai/ha, scale 0 to 100): 30 | Plant response rating, Cupgrass, Woolly [4, 11]: 15 | Plant response rating, Cupgrass, Woolly [4, 12]: 20 | Plant response rating, Cupgrass, Woolly [4, 13]: 30 | Plant response rating, Cupgrass, Woolly [4, 14]: 45 | Plant response rating, Windgrass [5, 20]: 50 | Plant response rating, Windgrass [5, 21]: 50 | Plant response rating, Windgrass [5, 22]: 55 | Plant response rating, Windgrass ([5]; 250 g ai/ha, scale 0 to 100): 60 | Plant response rating, Cocklebur [7, 11]: 5 | Plant response rating, Foxtail, Green [8, 11]: 100 | Plant response rating, Foxtail, Green [8, 12]: 100 | Plant response rating, Foxtail, Green [8, 13]: 100 | Plant response rating, Foxtail, Green [8, 14]: 100 | Plant response rating, Bromegrass, Downy [9, 11]: 25 | Plant response rating, Bromegrass, Downy [9, 12]: 30 | Plant response rating, Bromegrass, Downy [9, 13]: 30 | Plant response rating, Bromegrass, Downy [9, 14]: 45 | Plant response rating, Goosegrass [10, 11]: 35 | Plant response rating, Goosegrass [10, 12]: 40 | Plant response rating, Goosegrass [10, 13]: 50 | Plant response rating, Goosegrass [10, 14]: 60

Cc1nn(-c2ccc(F)cc2F)nc1Oc1ccnc(C(F)(F)F)c1 [Compound 146]
Plant response rating, Bermudagrass [1, 15]: 98 | Plant response rating, Bermudagrass [1, 19]: 98 | Plant response rating, Bermudagrass [1, 17]: 98 | Plant response rating, Bermudagrass [1, 18]: 98 | Plant response rating, Surinam Grass [2, 15]: 10 | Plant response rating, Surinam Grass [2, 19]: 20 | Plant response rating, Surinam Grass [2, 17]: 100 | Plant response rating, Surinam Grass [2, 18]: 100 | Plant response rating, Cupgrass, Woolly [4, 15]: 40 | Plant response rating, Cupgrass, Woolly [4, 19]: 45 | Plant response rating, Cupgrass, Woolly [4, 17]: 90 | Plant response rating, Cupgrass, Woolly [4, 18]: 100 | Plant response rating, Sunflower [6, 23]: 10 | Plant response rating, Sunflower [6, 24]: 20 | Plant response rating, Sunflower [6, 22]: 30 | Plant response rating, Sunflower [6, 25]: 35 | Plant response rating, Cocklebur [7, 15]: 0 | Plant response rating, Cocklebur [7, 19]: 0 | Plant response rating, Cocklebur [7, 17]: 0 | Plant response rating, Cocklebur [7, 18]: 0 | Plant response rating, Foxtail, Green [8, 15]: 90 | Plant response rating, Foxtail, Green [8, 19]: 90 | Plant response rating, Foxtail, Green [8, 17]: 90 | Plant response rating, Foxtail, Green [8, 18]: 90 | Plant response rating, Bromegrass, Downy [9, 15]: 0 | Plant response rating, Bromegrass, Downy [9, 19]: 0 | Plant response rating, Bromegrass, Downy [9, 17]: 15 | Plant response rating, Bromegrass, Downy [9, 18]: 80 | Plant response rating, Goosegrass [10, 15]: 70 | Plant response rating, Goosegrass [10, 19]: 85 | Plant response rating, Goosegrass [10, 17]: 100 | Plant response rating, Goosegrass [10, 18]: 100
